Measurements taken from article PMC6677754, “In silico design and optimization of selective membranolytic anticancer peptides” (Scientific Reports, 2019).
Where two headings read alike, the source gives them in different places. Peptide text beside a SMILES is read from it.

Tests used:
[1] = tested on: MCF7 breast adenocarcinoma cell line; assay: Cell viability assay (MTT); type: cell-based, human; conditions: 10^4 cells per well, 24 h with peptide, 2-fold dilution series from 100 µM in DMEM, absorbance 540 nm, mean ± std, N = 3
Procedure: (§1) 10% fetal bovine serum and 1% penicillin-streptomycin (Thermo Fisher Scientific, Waltham, MA, USA). The cultures were kept at 37°C in a 5% CO2 atmosphere incubator (Thermo Fisher Scientific, Waltham, MA, USA) and split every two to three days to new culture flasks. Cells no older than 20 passages were used for experiments.
(§2) For splitting, the cell culture media was aspirated, the cells were washed with 0.01 M phosphate buffered saline (PBS, Gibco, Thermo Fisher Scientific, Waltham, MA, USA) and trypsin-EDTA (trypsin - ethylene diamine tetraacetic acid, Fisher scientific, UK) was added to the cell layer to detach them from the flask surface. After incubation for 2 min at 37°C, cells were resuspended with an equal volume of DMEM media and centrifuged at 310 g for 5 min at 4°C. After removal of the supernatant the cells were resuspended in DMEM cell media and split into new cell culture flasks at a 1/3 to 1/5 ratio.
(§3) Determination of the anticancer peptides half effective concentration (EC50) was performed by a 3-(4,5-dimethylthiazol-2-yl)-2,5-diphenyltetrazolium bromide (MTT) assay, as described elsewhere21. Briefly, […] were seeded in each well of a 96-well plate and left to adhere and […]
(§4) sulfoxide (DMSO, Fisher Scientific, UK) at an intermediate concentration of 1 mM. The peptides were then diluted in a 2-fold dilution series starting at 100 μM with DMEM culture media. Cells were incubated with the peptide solutions for 24 h. After this time, the cell media was removed and the cells were incubated for 1 h with a 0.5 mg mL−1 MTT solution to allow enough time for formazan crystal formation (Sigma Aldrich, Steinheim, Germany). The supernatant was removed and 100 μL of DMSO were added into each well to resuspend the formazan crystals.
(§5) After manually shaking the plates to completely dissolve the crystals, the absorbance was measured at 540 nm in a Tecan Infinity M1000 spectrophotometer. The cell viability was determined based on the quantification of the color intensity in each culture well, considering the absorbance obtained by the control media without peptides as a 100% survival. The resultant sigmoidal curves were analyzed with the drc22 R package using a log-logistic model

[2] = tested on: A549 lung adenocarcinoma cell line; assay: Cell viability assay (MTT); type: cell-based, human
Procedure: as §1, §2, §3, §4, §5

[3] = MTT, 10^4 cells per well, 24 h with peptide, 2-fold dilution series from 100 µM in DMEM, absorbance 540 nm, mean ± std, N = 3, read-out: A549 EC50/µM

Work on `CC[C@H](C)[C@H](NC(=O)[C@H](Cc1ccc(O)cc1)NC(=O)[C@H](CC(N)=O)NC(=O)[C@H](CC(C)C)NC(=O)[C@H](CCC(=O)O)NC(=O)[C@H](CCC(=O)O)NC(=O)[C@H](CCCCN)NC(=O)[C@@H](NC(=O)[C@H](CO)NC(=O)[C@H](Cc1c[nH]cn1)NC(=O)[C@H](CCCNC(=N)N)NC(=O)[C@H](Cc1ccccc1)NC(=O)[C@H](C)N)C(C)C)C(=O)N[C@@H](CCCNC(=N)N)C(=O)N[C@@H](CCCNC(=N)N)C(=O)N[C@@H](CCCNC(=N)N)C(=O)N[C@@H](CC(C)C)C(=O)N[C@@H](CCC(=O)O)C(=O)N[C@@H](CCCNC(=N)N)C(=O)N[C@@H](Cc1ccccc1)C(=O)N1CCC[C@H]1C(=O)N[C@@H](CC(N)=O)C(=O)N[C@@H](CCCNC(=N)N)C(=O)N[C@@H](CC(C)C)C(N)=O` [AmphiArc3] (H-AFRHSVKEELNYIRRRLERFPNRL-NH2; N-terminus assumed) yielded an EC50 [1] greater than 50 µM and an EC50 [2, 3] greater than 50 µM.

`CC[C@H](C)[C@H](NC(=O)[C@H](C)NC(=O)[C@H](Cc1c[nH]c2ccccc12)NC(=O)[C@H](CC(C)C)NC(=O)CN)C(=O)N[C@@H](C)C(=O)N[C@H](C(=O)N[C@@H](CCCCN)C(=O)N[C@@H](C)C(=O)NCC(=O)N[C@@H](CCCCN)C(=O)N[C@H](C(=O)N[C@H](C(=O)N[C@@H](CC(C)C)C(=O)N[C@@H](CCCCN)C(=O)N[C@@H](CC(C)C)C(=O)N[C@H](C(=O)N[C@H](C(=O)N[C@@H](Cc1ccccc1)C(=O)N[C@H](C(=O)N[C@@H](Cc1c[nH]c2ccccc12)C(=O)N[C@H](C(=O)N[C@@H](CCCNC(=N)N)C(=O)N[C@H](C(N)=O)C(C)C)[C@@H](C)CC)[C@@H](C)CC)C(C)C)[C@@H](C)CC)[C@@H](C)CC)C(C)C)C(C)C` [Helical2] (H-GLWAIAVKAGKVILKLIVFIWIRV-NH2; N-terminus assumed) gave an EC50 [1] greater than 50 µM and an EC50 [2, 3] greater than 50 µM.

In the case of `CC[C@H](C)[C@H](NC(=O)[C@H](Cc1c[nH]c2ccccc12)NC(=O)[C@@H](NC(=O)[C@H](CCCNC(=N)N)NC(=O)[C@@H](NC(=O)[C@H](Cc1c[nH]c2ccccc12)NC(=O)[C@@H](N)CCCCN)C(C)C)[C@@H](C)CC)C(=O)N[C@@H](CCCCN)C(=O)N[C@H](C(=O)N[C@@H](CC(C)C)C(=O)N[C@@H](CCCNC(=N)N)C(=O)NCC(=O)N[C@@H](CC(C)C)C(=O)N[C@@H](Cc1ccccc1)C(=O)N[C@H](C(=O)N[C@@H](Cc1c[nH]c2ccccc12)C(=O)N[C@H](C(=O)N[C@@H](Cc1c[nH]c2ccccc12)C(=O)N[C@@H](Cc1ccccc1)C(=O)N[C@@H](Cc1ccccc1)C(N)=O)C(C)C)C(C)C)C(C)C` [Gradient1] (H-KWVRIWIKVLRGLFVWVWFF-NH2; N-terminus assumed), the EC50 [1] is reported as greater than 50 µM and the EC50 [2, 3] is reported as greater than 50 µM.

`CC[C@H](C)[C@H](NC(=O)[C@H](CCCNC(=N)N)NC(=O)[C@H](CCCCN)NC(=O)[C@H](CC(C)C)NC(=O)[C@H](Cc1c[nH]c2ccccc12)NC(=O)[C@H](C)N)C(=O)N[C@@H](CCCCN)C(=O)N[C@@H](CCCCN)C(=O)N[C@@H](Cc1ccccc1)C(=O)N[C@@H](CC(C)C)C(=O)N[C@@H](CCCCN)C(=O)N[C@@H](C)C(=O)N[C@@H](CC(C)C)C(=O)N[C@@H](Cc1ccccc1)C(=O)N[C@@H](Cc1c[nH]c2ccccc12)C(=O)N[C@H](C(=O)N[C@@H](Cc1c[nH]c2ccccc12)C(=O)N[C@H](C(=O)N[C@@H](Cc1c[nH]c2ccccc12)C(N)=O)C(C)C)C(C)C` [Gradient2] (H-AWLKRIKKFLKALFWVWVW-NH2) was tested, and the EC50 [1] was 19 ± 1.8 µM, the EC50 ([2]; Fig. S11, experimental replicate 1 (top panel), fit value (error in brackets), N = 6 technical replicates, MTT 24 h, read-out: EC50) was 107 µM and the EC50 ([2]; Fig. S11, experimental replicate 2 (middle panel), fit value (error in brackets), N = 6 technical replicates, MTT 24 h, read-out: EC50) was 152 µM. The EC50 ([2]; Fig. S11, experimental replicate 3 (bottom panel), fit value (error in brackets), N = 6 technical replicates, MTT 24 h, read-out: EC50) was 487 µM and the EC50 [2, 3] was greater than 50 µM.

With `CC[C@H](C)[C@H](NC(=O)[C@H](CO)NC(=O)[C@H](CCC(N)=O)NC(=O)[C@H](CC(C)C)NC(=O)[C@H](CCCNC(=N)N)NC(=O)[C@H](CCCCN)NC(=O)[C@H](CCCNC(=N)N)NC(=O)[C@H](CC(C)C)NC(=O)CNC(=O)[C@H](CC(N)=O)NC(=O)[C@H](CCC(=O)O)NC(=O)[C@@H](NC(=O)[C@@H](N)CCCNC(=N)N)[C@@H](C)CC)C(=O)N[C@@H](Cc1ccc(O)cc1)C(=O)N[C@@H](CCCNC(=N)N)C(=O)N[C@@H](Cc1c[nH]cn1)C(=O)N[C@@H](CC(C)C)C(=O)N[C@@H](CCC(=O)O)C(=O)N[C@@H](CCC(=O)O)C(N)=O` [AmphiArc4] (H-RIENGLRKRLQSIYRHLEE-NH2; N-terminus assumed) the EC50 [1] was greater than 50 µM and the EC50 [2, 3] was greater than 50 µM.

`CC[C@H](C)[C@H](NC(=O)[C@H](CC(=O)O)NC(=O)[C@H](CC(C)C)NC(=O)[C@H](CC(C)C)NC(=O)CN)C(=O)N[C@@H](C)C(=O)NCC(=O)NCC(=O)N[C@@H](CC(N)=O)C(=O)N[C@@H](C)C(=O)N[C@@H](CCC(=O)O)C(=O)N[C@H](C(=O)N[C@@H](CC(C)C)C(=O)N[C@@H](C)C(=O)NCC(=O)N[C@@H](Cc1c[nH]cn1)C(=O)N[C@@H](C)C(=O)N[C@H](C(N)=O)C(C)C)[C@@H](C)O` [Helical3] (H-GLLDIAGGNAETLAGHAV-NH2; N-terminus assumed) showed an EC50 [1] greater than 50 µM and an EC50 [2, 3] greater than 50 µM.

`CC[C@H](C)[C@H](NC(=O)[C@@H](NC(=O)[C@H](CC(C)C)NC(=O)[C@@H](NC(=O)[C@H](CC(N)=O)NC(=O)[C@H](CCC(=O)O)NC(=O)[C@H](Cc1ccccc1)NC(=O)[C@H](CC(N)=O)NC(=O)[C@H](CC(=O)O)NC(=O)[C@@H](NC(=O)[C@@H](NC(=O)[C@@H](N)CCCCN)C(C)C)C(C)C)[C@@H](C)CC)[C@@H](C)CC)C(N)=O` [Gradient3] (H-KVVDNFENILII-NH2; N-terminus assumed) gave an EC50 [1] greater than 50 µM and an EC50 [2, 3] greater than 50 µM.

`CC[C@H](C)[C@H](NC(=O)[C@H](CC(C)C)NC(=O)[C@H](CCCCN)NC(=O)[C@H](CC(C)C)NC(=O)[C@@H](NC(=O)[C@H](C)NC(=O)CNC(=O)[C@H](C)NC(=O)[C@H](CC(C)C)NC(=O)[C@H](CCCCN)NC(=O)CNC(=O)[C@H](CC(C)C)NC(=O)[C@H](CCCCN)NC(=O)[C@@H](NC(=O)[C@H](Cc1c[nH]c2ccccc12)NC(=O)[C@H](CC(C)C)NC(=O)[C@@H](N)Cc1ccccc1)[C@@H](C)CC)C(C)C)C(=O)N[C@@H](CC(C)C)C(=O)NCC(=O)N[C@@H](CC(C)C)C(=O)N[C@@H](CCCCN)C(=O)N[C@@H](CCCCN)C(=O)N[C@H](C(=O)N[C@H](C(N)=O)C(C)C)C(C)C` [Helical1] (H-FLWIKLGKLAGAVLKLILGLKKVV-NH2) gave an EC50 [1] of 4.4 ± 1.3 µM and an EC50 [2, 3] of 8.3 ± 2 µM.

Molecule `CC[C@H](C)[C@H](NC(=O)[C@H](CC(N)=O)NC(=O)[C@@H]1CCCN1C(=O)[C@@H](NC(=O)[C@H](C)NC(=O)[C@H](C)NC(=O)[C@H](CC(N)=O)NC(=O)[C@@H](NC(=O)[C@@H](N)CCCNC(=N)N)C(C)C)[C@@H](C)CC)C(=O)N[C@H](C(=O)N[C@H](C(N)=O)C(C)C)[C@@H](C)CC` [Gradient4] (H-RVNAAIPNIIV-NH2; N-terminus assumed) has an EC50 [1] greater than 50 µM and an EC50 [2, 3] greater than 50 µM.

For `CC[C@H](C)[C@H](NC(=O)[C@H](Cc1c[nH]c2ccccc12)NC(=O)[C@H](CCCNC(=N)N)NC(=O)[C@H](CCCNC(=N)N)NC(=O)[C@H](CC(C)C)NC(=O)[C@H](Cc1c[nH]c2ccccc12)NC(=O)[C@H](CC(N)=O)NC(=O)[C@H](Cc1c[nH]cn1)NC(=O)[C@@H](NC(=O)[C@H](CCCCN)NC(=O)[C@H](CCCCN)NC(=O)[C@@H](NC(=O)[C@H](Cc1c[nH]c2ccccc12)NC(=O)[C@@H](N)CCCCN)C(C)C)C(C)C)C(=O)N[C@@H](CCCCN)C(=O)N[C@H](C(=O)N[C@@H](Cc1ccccc1)C(=O)N[C@@H](CCC(=O)O)C(=O)N[C@@H](C)C(=O)N[C@@H](CC(C)C)C(=O)N[C@@H](Cc1ccccc1)C(=O)NCC(N)=O)C(C)C` [AmphiArc1] (H-KWVKKVHNWLRRWIKVFEALFG-NH2), the EC50 [1] was 7 ± 0.5 µM and the EC50 [2, 3] was 18.4 ± 0.7 µM.
